Test results from US20020137154A1, “Methods for improving cell growth and alcohol production during fermentation” (priority 2000, published 2002).

Tested on: recombinant Escherichia coli KO11
Assay: Batch fermentation of E. coli KO11 in Luria broth and xylose with nutrient additives: ethanol production and cell growth
Assay type: cell-based
Conditions: LB+xylose
Description: Two types of media were tested: 1% CSL and Luria broth (LB). Each contained 97 g of either xylose or glucose per liter. Luria Broth consists of, per liter: 10 g Difco® Tryptone, 5 g Difco® Yeast Extract and 5 g NaCl. The 1% CSL medium consists of Corn Steep Liquor (1% w/v) plus mineral salts (mineral salts per liter: 1 g of KH2PO4. 0.5 g of K2HPO4, 3.1 g of (NH4)2SO4, 0.4 g of MgCl2·6H2), and 20 mg FeCl3·6H2O).
Luria Broth was prepared by autoclaving a 2× nutrient stock containing, per liter: 20 g Difco® Tryptone, 10 g Difo® Yeast Extract, and 10 g NaCl. Sugars (xylose or glucose) were autoclaved separately. A 1% CSL medium was prepared as follows: Commercial Corn Steep Liquor (CSL; 50% dry weight/50% water) was diluted with tap water to make a 20X stock containing 100 g dry weight of Corn Steep Liquor/L and was adjusted to pH 7.2 with NaOH (50%). After sterilization by autoclaving, the 20X CSL stock was clarified by centrifugation at 5000×g for 10 minutes. Magnesium was added as a 100× stock solution (40 g/L MgCl2·6H2O). Iron was added as a 1000× stock solution made by dissolving 20 g FeCl3·6H2O in 175 mL of HCl and adjusting to 1 L with sterile water. Nitrogen, sulfur and phosphorus were added using a 20× stock solution containing the following (per liter): 20 g of KH2PO4, 10 g of K2HPO4 and 62 g of (NH4)2SO4. Stock solutions containing minerals were sterilized separately by autoclaving. Final media was prepared by adding 750 mL of water to 1 L bottle containing 100 g of xylose or glucose.
Inocula were grown in same media used for fermentation and were prepared as follows. Three colonies from a fresh plate were used to inoculate seed cultures: 250-mL flask containing 100 mL medium. These cultures were grown with agitation (120 rpm) for 12-16 hours at 35° C. to a final OD550nm of approximately 2.0-2.5. Cells were harvested by centrifugation at 5000×g for 5 minutes, and resuspended in fresh media to an OD550nm of 0.1. The resulting suspension was distributed into 500-mL beakers containing 345 ml each of fermentation medium. Acetaldehyde was added as indicated. Batch fermentations (35° C., 100 rpm) were maintained at pH 6.5 by the automatic addition of 2N KOH. Cell mass, ethanol, and base addition (2N KOH) were recorded during 96 hours of incubation.
Equivalent amounts of distilled water were added instead of the acetaldehyde in control experiments.
Additives (e.g., as listed in Table 1) were dissolved in 5 mL di-H2O. Solutions with pH lower than 5 were neutralized to pH 6.5 with 2N KOH. Nutritional supplements were then filter-sterilized (0.45 μm filter disk) directly into the fermentation vessel containing the culture. The final concentration of all additives in the culture medium was 2 g/L unless otherwise indicated.
Cell mass was estimated by measuring OD550nm using Baush & Lomb® Spectronic 70 spectrophotometer. […] Ethanol was measured by gas chromatography using a Varian® 3400 CX gas chromatograph with 1-propanol as an internal standard.
Tables 1, 3, and 5 show time to completion of fermentation, ethanol production, and volumetric productivity of the fermentation for all concentrations of the compound and the control. Maximum ethanol production is shown in grams/liter (g/L). The ethanol yield is shown in grams of ethanol/grams of added sugar. Maximum volumetric productivity is shown in grams ethanol/(liter)(hour). The average productivity is calculated form the start of fermentation to the completion of fermentation is grams ethanol/(liter)hour).
Tables 2, 4, and 6 show the initial growth of the cells (OD taken after the first 24 hours of fermentation) and the maximum cell density (the time which culture reaches the maximum OD value).
Acetaldehyde was added to the fermentation medium at five different concentrations and time points. […] Where two additions are indicated, the first volume was added at the start of fermentation and the second was added after 8 hours of fermentation.

`CC=O` [Acetaldehyde, acetaldehyde] was tested. Which “Ethanol Production Maximum” value (0.25 g/L at start) did it give?
The value was 43.80 g/L.

What about the “Ethanol Production Maximum % Control” value (0.25 g/L at start) of the same molecule?
The value was 101.68%.

And the Ethanol yield (0.25 g/L at start)?
Its Ethanol yield is 0.451 grams of ethanol/grams of added sugar.

What about the “Initial Growth (OD at 24 h) % Control” value (0.25 g/L at start) of the same molecule?
The value was 110.79%.

And the “Initial Growth (OD at 24 h) OD” value (0.25 g/L at start)?
The value was 11.07 OD.

And the “Maximum Cell Density % Control” value (0.25 g/L at start)?
Its value is 100.20%.

And the “Maximum Cell Density OD” value (0.25 g/L at start)?
Its value is 11.07 OD.

What about the “Maximum Cell Density Time” value (0.25 g/L at start) of the same molecule?
The value was 24 h.

What about the Time to completion (0.25 g/L at start) of the same molecule?
Its Time to completion is 48 h.

And the “Volumetric Productivity Average” value (0.25 g/L at start)?
The value was 0.913 grams ethanol/(liter)(hour).

And the “Volumetric Productivity Average % Control” value (0.25 g/L at start)?
Its value is 101.68%.

And the “Volumetric Productivity Maximum” value (0.25 g/L at start)?
Its value is 1.352 grams ethanol/(liter)(hour).

What about the “Volumetric Productivity Maximum % Control” value (0.25 g/L at start) of the same molecule?
The value was 117.36%.

And the “Ethanol Production Maximum” value (0.5 + 0.25 g/L (start, 8 h))?
The value was 41.40 g/L.

What about the “Ethanol Production Maximum % Control” value (0.5 + 0.25 g/L (start, 8 h)) of the same molecule?
The value was 96.11%.

And the Ethanol yield (0.5 + 0.25 g/L (start, 8 h))?
Its Ethanol yield is 0.426 grams of ethanol/grams of added sugar.

And the “Initial Growth (OD at 24 h) % Control” value (0.5 + 0.25 g/L (start, 8 h))?
The value was 99.02%.

What about the “Initial Growth (OD at 24 h) OD” value (0.5 + 0.25 g/L (start, 8 h)) of the same molecule?
The value was 9.89 OD.

And the “Maximum Cell Density % Control” value (0.5 + 0.25 g/L (start, 8 h))?
The value was 97.92%.

And the “Maximum Cell Density OD” value (0.5 + 0.25 g/L (start, 8 h))?
The value was 10.81 OD.

And the “Maximum Cell Density Time” value (0.5 + 0.25 g/L (start, 8 h))?
Its value is 48 h.

And the Time to completion (0.5 + 0.25 g/L (start, 8 h))?
The Time to completion was 48 h.

And the “Volumetric Productivity Average” value (0.5 + 0.25 g/L (start, 8 h))?
The value was 0.863 grams ethanol/(liter)(hour).

What about the “Volumetric Productivity Average % Control” value (0.5 + 0.25 g/L (start, 8 h)) of the same molecule?
The value was 96.11%.

And the “Volumetric Productivity Maximum” value (0.5 + 0.25 g/L (start, 8 h))?
The value was 0.904 grams ethanol/(liter)(hour).

What about the “Volumetric Productivity Maximum % Control” value (0.5 + 0.25 g/L (start, 8 h)) of the same molecule?
The value was 78.52%.

What about the “Ethanol Production Maximum” value (0.5 + 0.5 g/L (start, 8 h)) of the same molecule?
Its value is 41.64 g/L.

And the “Ethanol Production Maximum % Control” value (0.5 + 0.5 g/L (start, 8 h))?
Its value is 96.65%.

What about the Ethanol yield (0.5 + 0.5 g/L (start, 8 h)) of the same molecule?
Its Ethanol yield is 0.429 grams of ethanol/grams of added sugar.

What about the “Initial Growth (OD at 24 h) % Control” value (0.5 + 0.5 g/L (start, 8 h)) of the same molecule?
Its value is 106.98%.

And the “Initial Growth (OD at 24 h) OD” value (0.5 + 0.5 g/L (start, 8 h))?
Its value is 10.68 OD.

What about the “Maximum Cell Density % Control” value (0.5 + 0.5 g/L (start, 8 h)) of the same molecule?
The value was 106.68%.

And the “Maximum Cell Density OD” value (0.5 + 0.5 g/L (start, 8 h))?
The value was 11.78 OD.

What about the “Maximum Cell Density Time” value (0.5 + 0.5 g/L (start, 8 h)) of the same molecule?
The value was 48 h.

And the Time to completion (0.5 + 0.5 g/L (start, 8 h))?
The Time to completion was 48 h.

What about the “Volumetric Productivity Average” value (0.5 + 0.5 g/L (start, 8 h)) of the same molecule?
The value was 0.867 grams ethanol/(liter)(hour).

What about the “Volumetric Productivity Average % Control” value (0.5 + 0.5 g/L (start, 8 h)) of the same molecule?
The value was 96.65%.

And the “Volumetric Productivity Maximum” value (0.5 + 0.5 g/L (start, 8 h))?
Its value is 0.890 grams ethanol/(liter)(hour).

What about the “Volumetric Productivity Maximum % Control” value (0.5 + 0.5 g/L (start, 8 h)) of the same molecule?
Its value is 77.26%.

What about the “Ethanol Production Maximum” value (0.5 g/L at start) of the same molecule?
The value was 42.59 g/L.

What about the “Ethanol Production Maximum % Control” value (0.5 g/L at start) of the same molecule?
The value was 98.88%.

What about the Ethanol yield (0.5 g/L at start) of the same molecule?
The Ethanol yield was 0.438 grams of ethanol/grams of added sugar.

What about the “Initial Growth (OD at 24 h) % Control” value (0.5 g/L at start) of the same molecule?
The value was 108.77%.

And the “Initial Growth (OD at 24 h) OD” value (0.5 g/L at start)?
The value was 10.86 OD.

And the “Maximum Cell Density % Control” value (0.5 g/L at start)?
Its value is 107.97%.

And the “Maximum Cell Density OD” value (0.5 g/L at start)?
The value was 11.92 OD.

What about the “Maximum Cell Density Time” value (0.5 g/L at start) of the same molecule?
Its value is 48 h.

What about the Time to completion (0.5 g/L at start) of the same molecule?
The Time to completion was 48 h.

What about the “Volumetric Productivity Average” value (0.5 g/L at start) of the same molecule?
The value was 0.887 grams ethanol/(liter)(hour).

And the “Volumetric Productivity Average % Control” value (0.5 g/L at start)?
Its value is 98.88%.

What about the “Volumetric Productivity Maximum” value (0.5 g/L at start) of the same molecule?
The value was 1.027 grams ethanol/(liter)(hour).

And the “Volumetric Productivity Maximum % Control” value (0.5 g/L at start)?
Its value is 89.20%.

What about the “ethanol production as compared to the control” value (0.5 g/L at the start) of the same molecule?
Its value is “highest amount of ethanol production”.

And the “initial growth and maximum cell density as compared to the control” value (0.5 g/L at the start)?
The value was “greatest initial growth and maximum cell density”.

What about the “Ethanol Production Maximum” value (0.75 g/L at start) of the same molecule?
Its value is 42.65 g/L.

And the “Ethanol Production Maximum % Control” value (0.75 g/L at start)?
Its value is 99.00%.

And the Ethanol yield (0.75 g/L at start)?
Its Ethanol yield is 0.439 grams of ethanol/grams of added sugar.

What about the “Initial Growth (OD at 24 h) % Control” value (0.75 g/L at start) of the same molecule?
Its value is 105.54%.

What about the “Initial Growth (OD at 24 h) OD” value (0.75 g/L at start) of the same molecule?
The value was 10.54 OD.

What about the “Maximum Cell Density % Control” value (0.75 g/L at start) of the same molecule?
The value was 110.94%.

What about the “Maximum Cell Density OD” value (0.75 g/L at start) of the same molecule?
The value was 12.25 OD.

What about the “Maximum Cell Density Time” value (0.75 g/L at start) of the same molecule?
Its value is 48 h.

What about the Time to completion (0.75 g/L at start) of the same molecule?
The Time to completion was 48 h.

And the “Volumetric Productivity Average” value (0.75 g/L at start)?
Its value is 0.889 grams ethanol/(liter)(hour).

What about the “Volumetric Productivity Average % Control” value (0.75 g/L at start) of the same molecule?
The value was 99.00%.

What about the “Volumetric Productivity Maximum” value (0.75 g/L at start) of the same molecule?
Its value is 0.916 grams ethanol/(liter)(hour).

And the “Volumetric Productivity Maximum % Control” value (0.75 g/L at start)?
The value was 79.50%.
